Experimental findings from patent US4579841A, “Dipeptide derivatives having opiate activity” (University Patents, Inc., priority 1981, dated 1986) are described below.

Where a SMILES comes first, the peptide text is derived from it. [ ]: non-standard residue; d: D form.

The test system of the test is electrically stimulated guinea pig ileum. In words: In vitro assay on the electrically stimulated guinea pig ileum (Chipkin, et al.). Format: cell-based. As to conditions: potency relative to methionine-enkephalin=100. The procedure: Peptides were assayed for biological activity in vitro on the electrically stimulated guinea pig ileum, using the procedure described by Chipkin, et al. (Life Sciences 28:1517-1522, 1981). All potencies of the peptides in this assay are reported relative to the potency of methionine-enkephalin=100. Analgesic activity of the peptides in vivo was assayed by the tail-flick method following intracerebroventricular injection, as described in the Chipkin, et al., reference. The standard for this assay was Tyr-D-Ala-Gly-Phe-Met-amide.
*(Assay on the stimulated guinea pig ileum according to Chipkin, et al.;
standard peptide is methionineenkephalin.)

On to `NC(=O)[C@@H](Cc1ccccc1)NC(=O)[C@@H](N)Cc1ccc(O)cc1` [Tyr--D-Phe--NH2] (H-Tyr-[dF]-NH2), for which the “Relate In Vitro Potency” value is 0.1.
